The values that follow come from article PMC8414367, “(E)-7-Ethylidene-lithocholic Acid (7-ELCA) Is a Potent Dual Farnesoid X Receptor (FXR) Antagonist and GPBAR1 Agonist Inhibiting FXR-Induced Gene Expression in Hepatocytes and Stimulating Glucagon-like Peptide-1 Secretion From Enteroendocrine Cells” (Frontiers in Pharmacology, 2021).

What is called IC50 is the concentration that inhibits the measured activity by half. One may read the viability as a read-out of living cells in per cent, often relative to untreated cells. The term melting point denotes the temperature, or range, at which the solid turns liquid.

One series has as its system NCI-H716 cells. The experiment in a line: GLP-1 secretion (ELISA) in differentiated NCI-H716 cells. It is filed as cell-based, human. The conditions noted are these: 10 µM, 2 h. Background: In an ELISA, binding on a coated surface is turned into a signal by an enzyme label.
Series [1] concerns GPBAR1 mRNA, NCI-H716 cells. Description: GPBAR1 mRNA expression in differentiated NCI-H716 cells. It is filed as cell-based, human. The conditions noted are these: 10 µM, 2 h. The method, then: FIGURE 8 Effects of 7-alkylated derivatives of CDCA and 7-ELCA on the membrane receptor GPBAR1. […]. (B) CRE-luc activation depends on the presence of GPBAR1. (C) Effects of LCA and 7-ELCA (both at 10 µM) on intracellular generation of cAMP in differentiated NCI-H716 cells after 30 min treatment. The increase in cAMP level (ΔcAMP) is presented as the difference between cAMP concertation in the treated sample after subtraction of the cAMP in the nontreated control sample. (D) Concentration-response curves for activation of GPBAR1 by LCA and 7-ELCA. EC50 values were calculated using nonlinear fitting of concentration-response curves. […] (G) 7-ELCA (10 µM) increases GLP-1 secretion in siRNA control but not in siRNA Gpbar1 transfected GLUTag cells after 1 h treatment. GLP-1 was normalized to protein concentration and GPBAR1 mRNA expression to GAPDH mRNA. Data are presented as a fold to control nontreated (NT) samples. Forskolin (FSK, 10 µM) was used as a GPBAR1-independent activator of cAMP production.

In series [2] the target is T1, human FXR (Homo sapiens, UniProt Q96RI1).
T1 sequence (Q96RI1 1-486): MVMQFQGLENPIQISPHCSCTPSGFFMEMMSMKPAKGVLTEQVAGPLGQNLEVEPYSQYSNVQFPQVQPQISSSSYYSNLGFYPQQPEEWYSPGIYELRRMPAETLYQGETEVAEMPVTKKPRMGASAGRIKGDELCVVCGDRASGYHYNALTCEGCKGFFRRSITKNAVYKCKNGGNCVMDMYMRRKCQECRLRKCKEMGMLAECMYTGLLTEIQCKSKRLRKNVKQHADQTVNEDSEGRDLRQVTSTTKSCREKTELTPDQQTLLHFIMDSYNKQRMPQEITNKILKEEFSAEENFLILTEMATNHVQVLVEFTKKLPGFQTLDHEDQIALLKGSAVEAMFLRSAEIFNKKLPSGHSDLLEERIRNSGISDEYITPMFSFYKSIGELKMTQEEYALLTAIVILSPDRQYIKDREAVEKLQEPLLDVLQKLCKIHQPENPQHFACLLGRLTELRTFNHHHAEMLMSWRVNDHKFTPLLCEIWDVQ
T1 sequence (P19793 1-462 partner): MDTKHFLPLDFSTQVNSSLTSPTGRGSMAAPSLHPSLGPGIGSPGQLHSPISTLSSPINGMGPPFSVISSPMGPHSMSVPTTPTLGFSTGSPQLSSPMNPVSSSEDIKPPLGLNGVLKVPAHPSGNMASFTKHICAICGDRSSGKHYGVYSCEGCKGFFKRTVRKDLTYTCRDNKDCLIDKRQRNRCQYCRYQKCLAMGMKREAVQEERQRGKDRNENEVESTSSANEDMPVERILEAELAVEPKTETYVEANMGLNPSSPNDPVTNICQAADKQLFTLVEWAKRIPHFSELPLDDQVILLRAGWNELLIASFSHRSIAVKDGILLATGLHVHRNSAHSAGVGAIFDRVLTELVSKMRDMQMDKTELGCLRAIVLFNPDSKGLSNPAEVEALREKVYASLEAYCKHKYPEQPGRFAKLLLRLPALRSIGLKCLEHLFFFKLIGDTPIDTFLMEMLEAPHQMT
The experiment in a line: FXR luciferase reporter gene assay (FXRE-luc) in HepG2 cells, agonistic mode. It counts as cell-based. The conditions noted are these: 10 µM, 24 h, compound alone. The protocol: FIGURE 3 Interaction of 7-alkylated derivatives of CDCA and 7-ELCA with human FXR in luciferase reporter gene assays. HepG2 cells were transiently co-transfected with the luciferase FXRE-luc construct and with expression pSG5-hFXR, pSG5-hRXRα, and pRL-TK vectors. Cells were treated with indicated concentrations for 24 h alone (A), an agonistic mode) or with 1 µM OCA as an FXR agonist (B–F), an antagonistic mode). […] IC50 values were calculated using concentration-response curves nonlinear fitting in GraphPad software.
In general terms: Reporter assays use an easily measured gene product as a stand-in for the process of interest.

The test system of another series is various cell lines. Description: MTS viability assay, summary over cell lines. It is filed as cell-based. The conditions noted are these: 24 h, read-out: IC50, cellular viability. The method, then:
(§1) The potential cytotoxicity of 7-alkylated chenodeoxycholic acid derivatives were assessed in different human (HepG2, HepaRG and Huh7) and murine (AML12) hepatocyte-derived cell lines. For this purpose, hepatic cells were treated at increasing concentration for 24h and analyzed by MTS viability assay.
(§2) Table S2. Cell viability was determined using the Cell Titer 96 Aqueous One Solution Cell Proliferation Assay (MTS assay) after treatment with test compounds for 24 h in four different hepatic cell lines. Vehicle (0.1% DMSO) and background (10% SDS; v/v, toxic control) controls of cell viability were set to be 100% and 0%, respectively.
Background: Formazan colour is commonly taken as a measure of viable cells.

Series [3] deals with T1, human FXR. Description: FXR luciferase reporter gene assay (FXRE-luc) in HepG2 cells, antagonistic mode. It counts as cell-based. The note with it: HepG2; tested compound 10 µM, GW4064 1 µM; read-out: relative response (%) to the model FXR ligand activation (set to be 100%), GW4064 1 µM.
The test system of a further series is AML12. Description: MTS viability assay. It is filed as cell-based, murine. The note with it: Mus musculus; AML12, 24 h, MTS; read-out: IC50 (µM), cell viability. The method, then:
as §1, §2

A short description of series [4]: MTS viability assay. The note with it: mouse, AML12 cells; AML12, 24 h, vehicle = 100%. It counts as cell-based, murine. The protocol:
as §1, §2

In the next series the target is T2, GPBAR1 (Homo sapiens, UniProt Q8TDU6).
T2 construct: host or cells: HepG2
T2 sequence (Q8TDU6 1-330): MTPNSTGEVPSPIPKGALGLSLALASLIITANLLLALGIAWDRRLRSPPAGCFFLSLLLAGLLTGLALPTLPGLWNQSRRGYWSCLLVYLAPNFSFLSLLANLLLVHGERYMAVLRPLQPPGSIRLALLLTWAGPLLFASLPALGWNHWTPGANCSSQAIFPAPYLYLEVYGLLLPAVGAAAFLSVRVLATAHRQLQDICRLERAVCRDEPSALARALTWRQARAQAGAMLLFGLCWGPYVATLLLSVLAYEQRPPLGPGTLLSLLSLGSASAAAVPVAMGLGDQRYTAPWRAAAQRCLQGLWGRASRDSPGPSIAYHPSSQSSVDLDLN
The experiment in a line: GPBAR1 CRE-luc luciferase reporter assay in HepG2 cells. It counts as cell-based. The note with it: 10 µM, 5 h, LCA 10 µM set as 100%. The protocol:
(C) Effects of LCA and 7-ELCA (both at 10 µM) on intracellular generation of cAMP in differentiated NCI-H716 cells after 30 min treatment. The increase in cAMP level (ΔcAMP) is presented as the difference between cAMP concertation in the treated sample after subtraction of the cAMP in the nontreated control sample. (D) Concentration-response curves for activation of GPBAR1 by LCA and 7-ELCA. EC50 values were calculated using nonlinear fitting of concentration-response curves. […] GLP-1 was normalized to protein concentration and GPBAR1 mRNA expression to GAPDH mRNA. Data are presented as a fold to control nontreated (NT) samples. Forskolin (FSK, 10 µM) was used as a GPBAR1-independent activator of cAMP production.

Series [5] in a line: MTS viability assay. It is filed as cell-based, human. The conditions noted are these: human, vehicle = 100%. The protocol: as §1, §2
In the next series the test system is HepG2. The experiment in a line: MTS viability assay. It counts as cell-based, human. The note with it: Homo sapiens; HepG2, 24 h, MTS; read-out: IC50 (µM), cell viability. The protocol: as §1, §2
The next series has as its system Huh7. The experiment in a line: MTS viability assay. The conditions noted are these: Homo sapiens, Huh-7; Huh7, 24 h, MTS; read-out: IC50 (µM), cell viability. It is filed as cell-based, human. The method, then: as §1, §2
The next series deals with HepaRG. The experiment in a line: MTS viability assay. It counts as cell-based, human. The conditions noted are these: Homo sapiens, 24 h, MTS, read-out: IC50 (µM), cell viability. The method, then:
as §1, §2

On to `C[C@H](CCC(=O)O)[C@H]1CC[C@H]2[C@@H]3CC[C@@H]4C[C@H](O)CC[C@]4(C)[C@H]3CC[C@]12C` [LCA, 3α-hydroxy-5β-cholan-24-oic acid, reference compound], for which, in the series on NCI-H716 cells, the GLP-1 secretion result was “stimulate GLP-1 secretion”. The “GPBAR1 mRNA expression” value in series [1] is “stimulate”.

`CCCCCCCCC[C@@]1(O)C[C@@H]2C[C@H](O)CC[C@]2(C)C2CC[C@@]3(C)C(CC[C@@H]3[C@H](C)CCC(=O)O)C21` (stereo partly drawn) [2k, 3α,7α-Dihydroxy-7β-nonyl-5β-cholan-24-oic acid] returned a melting point of 78 to 80 °C. Moreover, the “FXR activation, agonistic mode (in words)” value on human FXR [2] was “significant inhibition of the FXR basal activation”. The IC50 in the series with various cell lines is about 15 µM. On human FXR [3], the remaining activity at 10 µM stood at 84.8 ± 1.8%. The IC50 in the series on AML12 was 12.5 µM. In the series “MTS viability assay [4]”, the viability at 24 h, 10 µM was found to be 68 ± 1.4%. At GPBAR1, the “CRE-luc activation compared to LCA (in words)” value is “weak or no ability to act as agonists of GPBAR1”. The viability at 24 h, 10 µM in the series “MTS viability assay [5]” (HepG2 cells, HepG2, 24 h) amounted to 79.8 ± 2.5%. For the same molecule, the viability at 24 h, 10 µM in the series “MTS viability assay [5]” (HepaRG cells) came out at 71.6 ± 2.8%. In addition, the viability at 24 h, 10 µM in “MTS viability assay [5]” (Huh7 cells, Huh7, 24 h) is 118 ± 4.9%. Besides, in the series on HepG2, the IC50 is about 10.9 µM. For the same molecule, in the series with Huh7, the IC50 worked out at 21.8 µM. Further, the half-inhibitory concentration (IC50) in the series with HepaRG was determined as 18.9 µM.
